Results: patent publication US10294228B2, “Breathing control modulating compounds, and methods of making and using same” (NEURAD LTD., priority 2015, dated 2019)
Structures can show the parent of a compound that is named as a salt.

Tested on: anesthetized rats
Test: Anesthetized rat spirometry screening assay (ventilatory activity, minute volume)
Assay type: in vivo
Settings: increase in minute volume (VE); for change in vivo at 0.3 mg/kg: 0.3 mg/kg IV bolus, read-out: VE % Inc @ 0.3 mg/kg IV; for change in vivo at 3 mg/kg: 3.0 mg/kg IV bolus, read-out: VE % Inc @ 3.0 mg/kg IV
Procedure: Anesthetized rats provide a quick method of screening compounds for respiratory and cardiovascular activity.
Rats were initially anesthetized with 3% isoflurane (inhaled) and femoral artery and vein cannulas were surgically inserted. Once cannulated, the rats were transitioned to urethane anesthesia (1.5 g/kg; i.v.) and a tracheal cut-down was performed. After placing the tracheal cannula, it was connected to a pneumotachometer to record respiratory airflow from which respiratory rate (RR), tidal volume (VT), and their product minute volume (MV, also termed VE) were derived. After the surgical preparation was complete, animals were allowed to stabilize for 30 minutes while respiratory rate, tidal volume, minute volume, blood pressure and heart rate were recorded continuously. Arterial blood gases (ABG) were obtained from arterial blood collected from the femoral artery. ABG measurements were taken before and 6 minutes after vehicle and each dose of compound administered. Compounds being screened were administered via bolus injections through the venous cannula followed by a saline flush (total time of administration is approximately 30 seconds), and the animal was monitored for at least 6 minutes for changes in cardiovascular efforts. Compounds were prepared in formulations identified to ensure optimal solubility. As such, vehicle controls were matched for the formulation of each compound tested. Dosing of the compounds being screened was conducted at 0.1 and/or 0.3 mg/kg and/or 3 mg/kg The next dose was not administered until all cardiovascular and respiratory measures had returned to baseline levels. The positive control compounds used were N-[4,6-di-(n-propylamino)-[1,3,5]triazin-2-yl]-N,O-dimethyl-hydroxylamine or N-[2,6-di-(n-propylamino)-[1,3]pyrimidin-4-yl]-N,O-dimethyl-hydroxylamine (both administered at the end of each screening experiment (0.3 mg/kg dose) to validate the experiment and also to serve as a measure with which the compound being screened could be compared.
Data were analyzed by collecting cardiovascular and respiratory data in 30 second averages (BINs). Data were plotted 2 minutes before challenge and then 6 minutes after challenge.

Row | SMILES | change in vivo at 0.3 mg/kg | change in vivo at 3 mg/kg
1 | CCCNc1nc(NC)c2nc(N[C@@H]3c4ccccc4C[C@@H]3O)nc(NC)c2n1 [Compound 123, (1R,2S)-1-(4,8-Bis-methylamino-6-propylamino-pyrimido[5,4-d]-pyrimidin-2-ylamino)-indan-2-ol] | 11% | 129%
2 | CCCNc1nc(NC)nc2c(N[C@@H]3CCC[C@H]3O)nc(NC)nc12 [Compound 87, (1R,2R)-2-(2,6-Bis-methylamino-8-propylamino-pyrimido[5,4-d]pyrimidin-4-ylamino)-cyclopentanol] | 39% | 129%
3 | CCCNc1nc(NC)c2nc(N(C)CC(C)(C)O)nc(NC)c2n1 [Compound 96, 1-[(4,8-Bis-methylamino-6-propylamino-pyrimido[5,4-d]pyrimidin-2-yl)-methyl-amino]-2-methyl-propan-2-ol] | 70% | 96%
4 | CCCNc1nc(NC)nc2c(NCCO)nc(NC)nc12 [Compound 4a, 2-(2,6-Bis-methylamino-8-propylamino-pyrimido[5,4-d]pyrimidin-4-ylamino)-ethanol hydrochloride] | 90% | –
5 | CNc1nc(NCC(F)(F)F)c2nc(NC)nc(NCCO)c2n1 [Compound 62a, 2-[2,6-Bis-methylamino-8-(2,2,2-trifluoro-ethylamino)-pyrimido[5,4-d]pyrimidin-4-ylamino]-ethanol Hydrochloride] | 40% | –
6 | CCCNc1nc(NCC)c2nc(NC[C@H](C)O)nc(NCC)c2n1 [Compound 166, (S)-1-(4,8-Bis-ethylamino-6-propylamino-pyrimido[5,4-d]-pyrimidin-2-ylamino)-propan-2-ol] | 88% | 91%
7 | CCNc1nc(NCC(C)(C)O)c2nc(NCC)nc(NCC)c2n1 [Compound 49a, 2-Methyl-1-(2,6,8-tris-ethylamino-pyrimido[5,4-d]-pyrimidin-4-ylamino)-propan-2-ol Hydrochloride] | 127% | 183%
8 | CCNc1nc(NCC)c2nc(NC[C@@H](C)O)nc(NCC)c2n1 [Compound 186, (R)-1-(4,6,8-Tris-ethylamino-pyrimido[5,4-d]pyrimidin-2-ylamino)-propan-2-ol] | 37% | 90%
9 | CCCNc1nc(NC)nc2c(NCC(O)(CC)CC)nc(NC)nc12 [Compound 74a, 3-[(2,6-Bis-methylamino-8-propylamino-pyrimido[5,4-d]pyrimidin-4-ylamino)-methyl]-pentan-3-ol Hydrochloride] | 153% | 208%
10 | CNc1nc(NCC2CC2)nc2c(NC)nc(NCCO)nc12 [Compound 90, 2-[6-(Cyclopropylmethyl-amino)-4,8-bis-methylamino-pyrimido[5,4-d]pyrimidin-2-ylamino]-ethanol] | 26% | –
11 | CCCNc1nc(NC)nc2c(NCCCO)nc(NC)nc12 [Compound 8a, 3-(2,6-Bis-methylamino-8-propylamino-pyrimido[5,4-d]pyrimidin-4-ylamino)-propan-1-ol hydrochloride] | 31% | –
12 | CC[C@H](C)Nc1nc(NC)c2nc(NC[C@@H](C)O)nc(NC)c2n1 [Compound 104, (R)-1-[6-((S)-sec-Butylamino)-4,8-bis-methylamino-pyrimido[5,4-d]pyrimidin-2-ylamino]-propan-2-ol] | 33% | 98%
13 | CCCNc1nc(NC)nc2c(NCC3(O)CCC3)nc(NC)nc12 [Compound 72a, 1-[(2,6-Bis-methylamino-8-propylamino-pyrimido[5,4-d]pyrimidin-4-ylamino)-methyl]-cyclobutanol Hydrochloride] | 132% | 150%
14 | CCCNc1nc(NC)nc2c(N[C@@H]3c4ccccc4C[C@H]3O)nc(NC)nc12 [Compound 80, (1R,2R)-1-(2,6-Bis-methylamino-8-propylamino-pyrimido[5,4-d]-pyrimidin-4-ylamino)-indan-2-ol] | 71% | 95%
15 | CCCNc1nc(NC)c2nc(N[C@H]3CCCC[C@@H]3O)nc(NC)c2n1 [Compound 133, (1S,2S)-2-(4,8-Bis-methylamino-6-propylamino-pyrimido[5,4-d]pyrimidin-2-ylamino)-cyclohexanol] | 35% | 111%
16 | CCCNc1nc(NC)nc2c(NCC(O)CC)nc(NC)nc12 (stereo not shown) [Compound 24a, 1-(2,6-Bis-methylamino-8-propylamino-pyrimido[5,4-d]pyrimidin-4-ylamino)-butan-2-ol Hydrochloride] | 100% | 121%
17 | CCCNc1nc(NC)nc2c(N[C@H]3CCCC[C@H]3O)nc(NC)nc12 [Compound 82, (1R,2S)-2-(2,6-Bis-methylamino-8-propylamino-pyrimido[5,4-d]pyrimidin-4-ylamino)-cyclohexanol] | 102% | 132%
18 | CCCNc1nc(NC)c2nc(NCC(C)(C)O)nc(NC)c2n1 [Compound 94, 1-(4,8-Bis-methylamino-6-propylamino-pyrimido[5,4-d]pyrimidin-2-ylamino)-2-methyl-propan-2-ol] | 18% | 130%
19 | CCCNc1nc(NC)c2nc(NC(C)C(C)O)nc(NC)c2n1 (stereo not shown) [Compound 119, 3-(4,8-Bis-methylamino-6-propylamino-pyrimido[5,4-d]pyrimidin-2-ylamino)-butan-2-ol] | 10% | 151%
20 | CNc1nc(NC[C@@H](C)O)nc2c(NC)nc(N)nc12 [Compound 151, (R)-1-(6-Amino-4,8-bis-methylamino-pyrimido[5,4-d]-pyrimidin-2-ylamino)-propan-2-ol] | 0% | 95%
21 | CCCNc1nc(NC)c2nc(N[C@@H]3CCC[C@H]3O)nc(NC)c2n1 [Compound 141, (1R,2R)-2-(4,8-Bis-methylamino-6-propylamino-pyrimido[5,4-d]pyrimidin-2-ylamino)-cyclopentanol] | 71% | 146%
22 | C=CCNc1nc(NC)c2nc(NC[C@H](C)O)nc(NC)c2n1 [Compound 143, (S)-1-(6-Allylamino-4,8-bis-methylamino-pyrimido[5,4-d]pyrimidin-2-ylamino)-propan-2-ol] | 81% | 150%
23 | CCCNc1nc(NC)c2nc(NCC(O)C(F)(F)F)nc(NC)c2n1 (stereo not shown) [Compound 111, 3-(4,8-Bis-methylamino-6-propylamino-pyrimido[5,4-d]pyrimidin-2-ylamino)-1,1,1-trifluoro-propan-2-ol] | 18% | 105%
24 | CCCNc1nc(NC)c2nc(N[C@@H]3c4ccccc4C[C@H]3O)nc(NC)c2n1 [Compound 129, (1R,2R)-1-(4,8-Bis-methylamino-6-propylamino-pyrimido[5,4-d]-pyrimidin-2-ylamino)-indan-2-ol] | 2% | 68%
25 | CNc1nc(NC)c2nc(NCC(C)(C)O)nc(NC)c2n1 [Compound 149, 2-Methyl-1-(4,6,8-tris-methylamino-pyrimido[5,4-d]pyrimidin-2-ylamino)-propan-2-ol] | 16% | 49%
26 | CC[C@@H](C)Nc1nc(NC)c2nc(NC[C@H](C)O)nc(NC)c2n1 [Compound 101, (S)-1-[6-((R)-sec-Butylamino)-4,8-bis-methylamino-pyrimido[5,4-d]pyrimidin-2-ylamino]-propan-2-ol] | 20% | 129%
27 | CNc1nc(NC[C@@H](C)O)nc2c(NC)nc(NCC3CC3)nc12 [Compound 144, (R)-1-[6-(Cyclopropylmethyl-amino)-4,8-bis-methylamino-pyrimido[5,4-d]pyrimidin-2-ylamino]-propan-2-ol] | 14% | 98%
28 | CCCNc1nc(NCC)nc2c(NCCO)nc(NCC)nc12 [Compound 27a, 2-(2,6-Bis-ethylamino-8-propylamino-pyrimido[5,4-d]pyrimidin-4-ylamino)-ethanol Hydrochloride] | 110% | –
29 | CCCNc1nc(NCC)c2nc(NCC(C)(C)O)nc(NCC)c2n1 [Compound 163, 1-(4,8-Bis-ethylamino-6-propylamino-pyrimido[5,4-d]pyrimidin-2-ylamino)-2-methyl-propan-2-ol] | 88% | 144%
30 | C=CCNc1nc(NC)c2nc(N(CCC)C[C@H](C)O)nc(NC)c2n1 [Compound 155, (S)-1-[(6-Allylamino-4,8-bis-methylamino-pyrimido[5,4-d]-pyrimidin-2-yl)-propyl-amino]-propan-2-ol] | 14% | 79%
